Laboratory results reported in patent US10105437B2, “Epitopes related to coeliac disease” (BTG International Limited, priority 2004, dated 2018).

Columns and labels:
Assay type in all cases: cell-based, human
[1] = tested on: PBMC from HLA-DQ2+ subjects; experiment: Interferon gamma ELISPOT, initial gliadin epitope screening library; conditions: 15 HLA-DQ2+ subjects, deamidated 20mers
Excerpt: In initial experiments involving 29 HLA-DQ2+ individuals with coeliac disease on long-term gluten free diet, interferon-gamma ELISPOT assays were used to screen a previous Pepset (described in WO 03/104273, which is incorporated herein by reference) initially as pools of peptides and then in 15 subjects as individual peptides with and without deamidation by tTG. This Pepset library consisted of 652 20mer gliadin peptides spanning all unique 12mers contained within all Genbank entries described as wheat gliadins found in September 2001. This Pepset library was designed “manually” from gene-derived protein sequences aligned using ClustalW software (MegAlign) arranged into phylogenetic groupings.
Approximately 0.6 micromole of each of 652 of the 20mers was provided. Two marker 20mer peptides were included in each set of 96 ([…]—peptide 161 (SEQ ID NO: 1931), and […] (SEQ ID NO: 1932)) and were characterized by reverse phase-HPLC and amino acid sequence analysis. Average purities of these marker peptides were 19% and 50%, respectively. Peptides were initially dissolved in acetonitrile (10%) and Hepes 100 mM to 10 mg/ml. The final concentration of individual peptides incubated with PBMC for the IFNγ ELISpot assays was 20 mcg/ml. These peptides were deamidated by incubation with guinea pig tissue tTG (Sigma T5398) in the ratio 100:32 mcg/ml for two hours at 37° C. […]

[2] = tested on: PBMC from HLA DQ8+DQ2- CD subjects; experiment: Interferon gamma ELISPOT, glutenin 20mer library in HLA DQ8 subjects; conditions: tTG-pretreated glutenin 20mers sharing the motif or sequence
Excerpt: PBMC from two subjects initially challenged were used to screen the first round “Melbourne” wheat gliadin 20mer library. The 20mer sequences identified using PBMC from these two HLA DQ8 CD subjects were dissected further by screening, in five HLA DQ8+DQ2− CD subjects including the two original subjects, a second round library based on reactive 20mers in the 1st round library. The 2nd round library consisted of screening grade overlapping 16mers, and 13mers predicted to correspond to tTG-mediated deamidation products of epitopes with the potential for deamidation of glutamine at position 1 and/or position 9 (consistent with the HLA DQ8 peptide binding motif). In addition, the 1400 glutenin (HMW and LMW) tTG-pretreated 20mers in the “Melbourne” wheat gluten library were also screened in these five subjects.
Dominant 20mer peptides shared the motifs or had the sequences: PQQQQQQLVQQQ (SEQ ID NO: 1917), QGIFLQPH(LQ)I(AS)QLEV (SEQ ID NO: 1918), QPGQGQQG(HY)Y (SEQ ID NO: 1919), QSRYEAIRAII(FY)S (SEQ ID NO: 1920), RTTTSVPFD (SEQ ID NO: 1921), QPPFWRQQP (SEQ ID NO: 1922), Q(PS)(PS)(FI)(PS) QQQQ (SEQ ID NO: 1923), (QPLR)GYYPTSPQ (SEQ ID NO: 1924) (previously identified HLA DQ8 epitope, van der Wal 2001), QGSYYPGQASPQ (SEQ ID NO: 1925), […] (SEQ ID NO: 1926), and […] (SEQ ID NO: 1927). Glutenin peptides were assessed after pre-treatment with transglutaminase.

[3] = tested on: PBMC from HLA DQ2 coeliac disease subjects; experiment: Interferon gamma ELISPOT, combitope comparison after wheat, rye or barley challenge; conditions: for median ELISPOT response as percent of response to Combitope: after wheat challenge, n=16 subjects
Excerpt: The issue of epitope redundancy and the potential utility in diagnostics and therapeutics of peptides designed to combine “unique” dominant epitopes was addressed by comparing interferon gamma ELISPOT responses after wheat (n=16 HLA DQ2 coeliac disease subjects), rye (n=17) or barley (n=13) challenge to the sequences: QLQPFPQPELPYPQPQL (SEQ ID NO: 1903) (“P04724E”), QPEQPFPQPEQPFPWQP (SEQ ID NO: 1904) (“626fEE”), and […] (SEQ ID NO: 1905) (“Combitope”). After rye and barley challenge the sum of the median ELISPOT responses (spot forming units) to P04724E and 626fEE were almost identical (99%, and 102%, respectively) to the response to a similar (optimal) concentration of the Combitope. However, after wheat challenge (n=16 subjects), median P04724E response was 89% of that to Combitope, and median 626fEE responses was 70% of the response to Combitope.

[4] = tested on: PBMC from subjects with DQ2+ coeliac disease; experiment: Interferon gamma ELISPOT, high grade avenin peptides after oats challenge; conditions: for subjects in whom peptide was dominant (>70% maximal response) after oats challenge: day 6 PBMC
Description: IFNγ ELISpot assays (Mabtech, Sweden) were performed in 96-well plates (MAIP S-45, Millipore) in which each well contained 25 mcl of peptide solution and 100 mcl of PBMC (2-8×10^5/well) in RPMI containing 10% heat inactivated human AB serum. After development and drying, IFNγ ELISpot plates were assessed using the MAIP automated ELISpot plate counter. Data was then analysed according to a novel algorithm (Expectation Maximization: EM) to define and quantify interferon-gamma responses to 9mer sequences contained within the peptide library (see FIG. 3 and below). 9mer peptides were then rationalised according to an algorithm that assumes redundancy in T-cell recognition, the “IterativeCluster” algorithm (see FIG. 4 and below), by allowing groups of amino acids with similar chemical properties at any one position in the 9mer, or for glutamate to replace glutamine at any position (assuming deamidation may have occurred).
High grade avenin peptides were assessed 3 days after completing oats challenge with pure wheat-free oats, 100 g/d for 3 days (“day 6” PBMC interferon gamma ELISPOT responses). These peptides were designed upon peptides previously defined using the screening grade (“first round”) avenin peptide library and on potential deamidation sites. There were 25 peptides (as 16mers) with purity verified by HPLC as >80%, and sequences confirmed by mass spectroscopy.
Interferon gamma ELISPOT responses to the high grade avenin peptides following deamidation by tTG were compared in 18 subjects with DQ2+ coeliac disease.

[5] = after oats challenge, deamidated by tTG, 18 subjects

For “PQPFPPQLPYPQPQLPYPQP (Description of Artificial Sequence: Synthetic gliadin peptide) [Peptide 91]”, the “potency rank in library” value [1] was “most potent gliadin 20mer”.

“QGSYYPGQASPQ (Description of Artificial Sequence: Synthetic gluten peptide) [motif of dominant glutenin 20mers, HLA DQ8]” was tested, and the “dominance among five subjects” value [2] was “dominant in at least one of the five subjects”.

“QLQPFPQPELPYPQPQL (Description of Artificial Sequence: Synthetic gluten peptide) [Peptide P04724E]” was tested, and the “sum of the median ELISPOT responses to P04724E and 626fEE relative to response to Combitope” value ([3]; after barley challenge, n=13) was 102%, the “sum of the median ELISPOT responses to P04724E and 626fEE relative to response to Combitope” value ([3]; after rye challenge, n=17) was 99% and the “median ELISPOT response as percent of response to Combitope” value [3] was 89%.

With “QYQPYPEQEQPILQQQ (Description of Artificial Sequence: Synthetic gluten peptide)” the “subjects in whom peptide was dominant (>70% maximal response) after oats challenge” value ([4]; deamidated by tTG, 18 subjects) was 3/18.

In the case of “SEQYQPYPEQQEPFVQ (Description of Artificial Sequence: Synthetic gluten peptide) [peptide 1490, avenin peptide reported in Arentz-Hansen, PLoS Medicine 2004, reference compound]”, the “subjects with far weaker response” value ([4]; after oats challenge) is reported as 5 and the “subjects with strong positive response” value ([4]; after oats challenge) is reported as “one”.

In the case of “GYYPTSSLQPEQGQQGYYPT (Description of Artificial Sequence: Synthetic gluten peptide) [glutenin 20mer, HLA DQ8]”, the “dominance among five subjects” value [2] is reported as “dominant in at least one of the five subjects”.

For “QPEQPFPQPEQPFPWQP (Description of Artificial Sequence: Synthetic gluten peptide) [Peptide 626fEE]”, the “sum of the median ELISPOT responses to P04724E and 626fEE relative to response to Combitope” value ([3]; after barley challenge, n=13) was 102%, the “sum of the median ELISPOT responses to P04724E and 626fEE relative to response to Combitope” value ([3]; after rye challenge, n=17) was 99% and the “median ELISPOT response as percent of response to Combitope” value [3] was 70%.

“(QPLR)GYYPTSPQ: previously identified HLA DQ8 epitope, van der Wal 2001 [reference compound]” was tested, and the “dominance among five subjects” value [2] was “dominant in at least one of the five subjects”.

“QGQQLAQGQQGQQPAQVQQG (Description of Artificial Sequence: Synthetic gluten peptide) [glutenin 20mer, HLA DQ8]” was tested, and the “dominance among five subjects” value [2] was “dominant in at least one of the five subjects”.

“EQQFGQNIFSGFSVQL (Description of Artificial Sequence: Synthetic gluten peptide)” was tested, and the “subjects in whom peptide was dominant (>70% maximal response) after oats challenge” value ([4]; deamidated by tTG, 18 subjects) was 11/18.

With “EQYQPEQQPFMQPL (Description of Artificial Sequence: Synthetic gluten peptide)” the “subjects with >40% maximal peptide response” value [4, 5] was 5/18.

With “RTTTSVPFD (Description of Artificial Sequence: Synthetic gluten peptide) [motif of dominant glutenin 20mers, HLA DQ8]” the “dominance among five subjects” value [2] was “dominant in at least one of the five subjects”.

“QLRCPAIHSVVQAIIL (Description of Artificial Sequence: Synthetic gluten peptide)” was tested, and the “subjects in whom peptide was dominant (>70% maximal response) after oats challenge” value ([4]; deamidated by tTG, 18 subjects) was 4/18.

For “QIPEQLRCPAIHSVVQ (Description of Artificial Sequence: Synthetic gluten peptide)”, the “subjects with positive responses” value [4, 5] was 3/18.

In the case of “QPPFWRQQP (Description of Artificial Sequence: Synthetic gluten peptide) [motif of dominant glutenin 20mers, HLA DQ8]”, the “dominance among five subjects” value [2] is reported as “dominant in at least one of the five subjects”.

For “PQQQQQQLVQQQ (Description of Artificial Sequence: Synthetic gluten peptide) [motif of dominant glutenin 20mers, HLA DQ8]”, the “dominance among five subjects” value [2] was “dominant in at least one of the five subjects”.
